{
  "source": "patent US12723063B2",
  "about": "“GIPR-agonist compounds” (Eli Lilly and Company, priority 2019, dated 2026)",
  "key": {"[1]": {"system": "CD4+ T cells (CD8+ T cell-depleted PBMCs)", "assay": "CD4+ T cell proliferation assay (immunogenicity assessment)", "format": "cell-based, human", "settings": "0.33 μM, 7 days, 10 healthy donors; positive response CDI>2.5", "method": "Protein therapeutics that induce less than 30% positive response in the CD4+ T cell proliferation assay are associated with a low risk of immunogenicity. Briefly, to assess the propensity for a clinical immunogenic response to the compounds of Examples 1, 2, 3, 5, and 6, CD8+ T cell-depleted peripheral blood mononuclear cells (PBMCs) are prepared and labeled with carboxyfluorescein diacetate succinimidyl ester (CFSE; Invitrogen) from a cohort of 10 healthy donors with diverse human leukocyte antigen (HLA) class II haplotypes. Each donor is tested in triplicate with 2.0 mL media control, keyhole limpet hemocyanin (KLH: 0.33 μM), and the compounds of Examples 1, 2, 3, 5, and 6 (0.33 μM). Cultures are incubated for 7 days at 37° C. with 5% CO2. On day 7, samples are analyzed by flow cytometry using a BD LSR II Fortessa (Becton Dickinson; Franklin Lakes, NJ), equipped with a high throughput sampler (HTS). Data is analyzed using FlowJo® Software (FlowJo, LLC/TreeStar; Ashland, OR).\n• Cell Division Index (“CDI”): proportion of divided CD4+ T cells to the total number of CD4+ T cells in stimulated versus unstimulated samples."}, "[2]": {"assay": "Pharmacokinetics in male cynomolgus monkeys, single subcutaneous administration", "format": "in vivo, cynomolgus monkey", "settings": "50 nmol/kg single SC, mean n = 2; for CL/F / Tmax / half-life: cynomolgus monkey, plasma", "method": "The pharmacokinetics of select Examples are evaluated following a single subcutaneous administration of 50 nmol/kg to male cynomolgus monkeys. Blood samples are collected over 504 hours and resulting individual plasma concentrations are used to calculate pharmacokinetic parameters. Peptide plasma (K3 EDTA) concentrations are determined using a qualified LC/MS method that measured the intact mass of the compound. Each peptide and an analog as an internal standard are extracted from 100% cynomolgus monkey plasma using a protein precipitation method. Instruments are combined for LC/MS detection."}, "[3]": {"molecular_target": "T1, human GLP-1R (Homo sapiens, UniProt P43220)", "T1 construct": "expressed in transfected cells; crude membranes", "T1 sequence (P43220 24-463)": "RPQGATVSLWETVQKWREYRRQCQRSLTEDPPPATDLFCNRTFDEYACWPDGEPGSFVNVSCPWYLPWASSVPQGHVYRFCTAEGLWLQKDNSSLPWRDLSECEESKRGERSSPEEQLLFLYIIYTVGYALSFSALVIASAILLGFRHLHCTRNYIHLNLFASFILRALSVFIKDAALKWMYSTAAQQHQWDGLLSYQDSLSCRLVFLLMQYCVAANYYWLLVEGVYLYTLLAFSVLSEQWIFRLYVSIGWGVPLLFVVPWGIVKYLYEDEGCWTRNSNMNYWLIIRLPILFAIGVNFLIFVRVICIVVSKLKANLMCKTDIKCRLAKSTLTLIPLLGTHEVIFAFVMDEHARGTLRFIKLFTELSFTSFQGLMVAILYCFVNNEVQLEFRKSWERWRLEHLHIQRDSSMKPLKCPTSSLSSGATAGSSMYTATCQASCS", "assay": "[125I]-GLP-1 binding, SPA with WGA beads, 0.1% bacitracin", "settings": "geometric mean, read-out: hGLP1R Ki", "in_short": "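Binding buffer was 25 mM HEPES pH 7.4 with 2.5 mM CaCl2, 1 mM MgCl2, 0.1% (w/v) bacitracin, 0.003% Tween-20 and EDTA-free protease inhibitors. Four-parameter regression gave IC50, converted to Ki (geometric mean, SEM, n independent days).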"}, "[4]": {"assay": "Pharmacokinetics in male Sprague Dawley rats, single subcutaneous administration", "format": "in vivo, Sprague Dawley rat", "settings": "100 nmol/kg single SC, mean n = 3 (example 3 n = 1); for CL/F / Tmax / half-life: rat, plasma", "method": "The pharmacokinetics of select Examples are evaluated following a single subcutaneous (SC) administration of 100 nmol/kg to male Sprague Dawley rats. Blood samples are collected over 168 hours following SC administration. Pharmacokinetic parameters are calculated using individual plasma concentrations. A qualified LC/MS method that measures the intact mass of the Example is used to determine plasma (K3 EDTA) concentrations. Each peptide and an analog as an internal standard are extracted from 100% rat plasma using a protein precipitation method. Instruments are combined for LC/MS detection. Mean pharmacokinetic parameters for the Examples are shown in […]"}},
  "data": [
    {"molecule": "CC[C@H](C)[C@H](NC(=O)[C@H](CCCCN)NC(=O)[C@H](CC(=O)O)NC(=O)[C@H](CC(C)C)NC(=O)[C@](C)(CC(C)C)NC(=O)[C@@H](NC(=O)[C@H](CO)NC(=O)[C@H](Cc1ccc(O)cc1)NC(=O)[C@H](CC(=O)O)NC(=O)[C@H](CO)NC(=O)[C@@H](NC(=O)[C@H](Cc1ccccc1)NC(=O)[C@@H](NC(=O)CNC(=O)[C@H](CCC(=O)O)NC(=O)C(C)(C)NC(=O)[C@@H](N)Cc1ccc(O)cc1)[C@@H](C)O)[C@@H](C)CC)[C@@H](C)CC)C(=O)N[C@@H](Cc1c[nH]cn1)C(=O)N[C@@H](CCC(N)=O)C(=O)NC(C)(C)C(=O)N[C@@H](CC(=O)O)C(=O)N[C@@H](Cc1ccccc1)C(=O)N[C@H](C(=O)N[C@@H](CCC(=O)O)C(=O)N[C@@H](Cc1ccc(O)cc1)C(=O)N[C@@H](CCCCNC(=O)COCCOCCNC(=O)COCCOCCNC(=O)CC[C@H](NC(=O)CCCCCCCCCCCCCCCCCCC(=O)O)C(=O)O)C(=O)N[C@@H](CC(C)C)C(=O)N[C@@H](CCC(=O)O)C(=O)NCC(=O)NCC(=O)N1CCC[C@H]1C(=O)N[C@@H](CO)C(=O)N[C@@H](CO)C(=O)NCC(=O)N[C@@H](C)C(=O)N1CCC[C@H]1C(=O)N1CCC[C@H]1C(=O)N1CCC[C@H]1C(=O)N[C@@H](CO)C(N)=O)C(C)C", "note": "[Example 5]", "values": [
      {"measurement": "% Donor Response (n = 10)", "setting": "[1]", "result": 0, "unit": "%"},
      {"measurement": "AUCInf/Dose", "setting": "[2]", "result": 2262, "unit": "hr*kg*nmol/L/nmol"},
      {"measurement": "Cmax/Dose", "setting": "[2]", "result": 12.0, "unit": "kg*nmol/L/nmol"},
      {"measurement": "CL/F", "setting": "[2]", "result": 0.44, "unit": "mL/h/kg"},
      {"measurement": "Tmax", "setting": "[2]", "result": 120, "unit": "h"},
      {"measurement": "half-life", "setting": "[2]", "result": 128, "unit": "h"},
      {"measurement": "Ki", "setting": "[3]", "result": "> 913", "unit": "nM"},
      {"measurement": "AUCInf/Dose", "setting": "[4]", "result": 239, "unit": "hr*kg*nmol/L/nmol"},
      {"measurement": "Cmax/Dose", "setting": "[4]", "result": 4.61, "unit": "kg*nmol/L/nmol"},
      {"measurement": "CL/F", "setting": "[4]", "result": 4.2, "unit": "mL/h/kg"},
      {"measurement": "Tmax", "setting": "[4]", "result": 24, "unit": "h"},
      {"measurement": "half-life", "setting": "[4]", "result": 27.1, "unit": "h"}
    ]},
    {"molecule": "CC[C@H](C)[C@H](NC(=O)[C@H](CO)NC(=O)[C@H](Cc1ccc(O)cc1)NC(=O)[C@H](CC(=O)O)NC(=O)[C@H](CO)NC(=O)[C@@H](NC(=O)[C@H](Cc1ccccc1)NC(=O)[C@@H](NC(=O)CNC(=O)[C@H](CCC(=O)O)NC(=O)[C@@H](C)NC(=O)[C@@H](N)Cc1ccc(O)cc1)[C@@H](C)O)[C@@H](C)CC)C(=O)N[C@@H](CC(C)C)C(=O)N[C@@H](CC(C)C)C(=O)N[C@@H](CC(=O)O)C(=O)N[C@@H](CCCCN)C(=O)N[C@@H](CCCCNC(=O)COCCOCCNC(=O)COCCOCCNC(=O)CC[C@H](NC(=O)CCCCCCCCCCCCCCCCCCC(=O)O)C(=O)O)C(=O)N[C@@H](C)C(=O)N[C@@H](CCC(N)=O)C(=O)NC(C)(C)C(=O)N[C@@H](CC(=O)O)C(=O)N[C@@H](Cc1ccccc1)C(=O)N[C@H](C(=O)N[C@@H](CC(N)=O)C(=O)N[C@@H](Cc1c[nH]c2ccccc12)C(=O)N[C@@H](CC(C)C)C(=O)N[C@@H](CC(C)C)C(=O)N[C@@H](C)C(=O)N[C@@H](CCC(N)=O)C(=O)NCC(=O)N1CCC[C@H]1C(=O)N[C@@H](CO)C(=O)N[C@@H](CO)C(=O)NCC(=O)N[C@@H](C)C(=O)N1CCC[C@H]1C(=O)N1CCC[C@H]1C(=O)N1CCC[C@H]1C(=O)N[C@@H](CO)C(N)=O)C(C)C", "note": "[Example 1]", "values": [
      {"measurement": "% Donor Response (n = 10)", "setting": "[1]", "result": 0, "unit": "%"},
      {"measurement": "AUCInf/Dose", "setting": "[2]", "result": 786, "unit": "hr*kg*nmol/L/nmol"},
      {"measurement": "Cmax/Dose", "setting": "[2]", "result": 7.20, "unit": "kg*nmol/L/nmol"},
      {"measurement": "CL/F", "setting": "[2]", "result": 1.27, "unit": "mL/h/kg"},
      {"measurement": "Tmax", "setting": "[2]", "result": 24, "unit": "h"},
      {"measurement": "half-life", "setting": "[2]", "result": 71.1, "unit": "h"},
      {"measurement": "Ki", "setting": "[3]", "result": 57.8, "unit": "nM"},
      {"measurement": "AUCInf/Dose", "setting": "[4]", "result": 280, "unit": "hr*kg*nmol/L/nmol"},
      {"measurement": "Cmax/Dose", "setting": "[4]", "result": 3.62, "unit": "kg*nmol/L/nmol"},
      {"measurement": "CL/F", "setting": "[4]", "result": 3.57, "unit": "mL/h/kg"},
      {"measurement": "Tmax", "setting": "[4]", "result": 24, "unit": "h"},
      {"measurement": "half-life", "setting": "[4]", "result": 37.4, "unit": "h"}
    ]}
  ]
}
